According to patent US4864023A, “Pyrido(3,2,1-IJ)-1,3,4-benzoxadiazine derivatives” (priority 1988, dated 1989):
Values after ≈ are worked out from the molar mass of the structure shown.

Tests used:
Assay in all cases: in vitro antibacterial activity, standard agar dilution method
Type in all cases: cell-based
[1] = test system: Salmonella typhimurium IFO 12529; details: Salmonella enterica, aerobic, read-out: minimum inhibitory concentration (MIC)
[2] = test system: Staphylococcus aureus NR 2855; details: NR2855; Staphylococcus aureus NR 2855; aerobic; agar dilution; read-out: minimum inhibitory concentration (MIC)
[3] = test system: Enterobacter cloacae NR 2946; details: NR2946, aerobic, read-out: minimum inhibitory concentration (MIC)
[4] = test system: Pseudomonas aeruginosa A3; details: aerobic, read-out: minimum inhibitory concentration (MIC)
[5] = test system: Proteus vulgaris OX19 ATCC 6898; details: ATCC6898, aerobic, read-out: minimum inhibitory concentration (MIC)
[6] = test system: Bacillus subtilis PCI 219; details: PCI219, aerobic, read-out: minimum inhibitory concentration (MIC)
[7] = test system: Citrobacter freundii IFO 12681; details: IFO12681, aerobic, read-out: minimum inhibitory concentration (MIC)
[8] = test system: Bordetella bronchiseptica ATCC 4617; details: ATCC4617, aerobic, read-out: minimum inhibitory concentration (MIC)
[9] = test system: Enterococcus faecalis NR 2943; details: NR2943, aerobic, read-out: minimum inhibitory concentration (MIC)
[10] = test system: Staphylococcus aureus FDA 209P JC-1; details: FDA209P; Staphylococcus aureus FDA 209P JC-1; aerobic; agar dilution; read-out: minimum inhibitory concentration (MIC)
[11] = test system: Enterobacter aerogenes NR 2945; details: Klebsiella aerogenes, NR2945, aerobic, read-out: minimum inhibitory concentration (MIC)
[12] = test system: Alcaligenes faecalis IFO 13111; details: IFO13111, aerobic, read-out: minimum inhibitory concentration (MIC)
[13] = test system: Escherichia coli NIHJ JC-2; details: NIHJJC2, aerobic, read-out: minimum inhibitory concentration (MIC)
[14] = test system: Klebsiella pneumoniae FDA PCI 602; details: FDAPCI602, aerobic, read-out: minimum inhibitory concentration (MIC)
Escherichia coli NR 2630 = details: NR2630; Escherichia coli NR 2630; aerobic; agar dilution; read-out: minimum inhibitory concentration (MIC)
[15] = test system: Proteus rettgeri ATCC 14505; details: Providencia rettgeri, ATCC14505, aerobic, read-out: minimum inhibitory concentration (MIC)
[16] = test system: Pseudomonas aeruginosa NR 2950; details: NR2950, aerobic, read-out: minimum inhibitory concentration (MIC)
[17] = test system: Staphylococcus epidermidis NR 2942; details: NR2942, aerobic, read-out: minimum inhibitory concentration (MIC)
[18] = test system: Staphylococcus aureus Smith; details: Staphylococcus aureus Smith; aerobic; agar dilution; read-out: minimum inhibitory concentration (MIC)
[19] = test system: Staphylococcus epidermidis IFO 12993; details: IFO12993, aerobic, read-out: minimum inhibitory concentration (MIC)
[20] = test system: Serratia marcescens IFO 12648; details: IFO12648, aerobic, read-out: minimum inhibitory concentration (MIC)
[21] = test system: Pseudomonas stutzeri IFO 12695; details: Stutzerimonas stutzeri, IFO12695, aerobic, read-out: minimum inhibitory concentration (MIC)

Row | Compound | MIC [1] | MIC [2] | MIC [3] | MIC [4] | MIC [5] | MIC [6] | MIC [7] | MIC [8] | MIC [9] | MIC [10] | MIC [11] | MIC [12] | MIC [13] | MIC [14] | MIC (Escherichia coli NR 2630) | MIC [15] | MIC [16] | MIC [17] | MIC [18] | MIC [19] | also measured
1 | CN1COc2c(N3CCNC(c4ccccc4)C3)c(F)cc3c(=O)c(C(=O)O)cn1c23 (centres unmarked) [Example 8] | 0.025 µg/mL (≈ 0.0589 µM) | 0.39 µg/mL (≈ 0.919 µM) | 0.05 µg/mL (≈ 0.118 µM) | 0.39 µg/mL (≈ 0.919 µM) | 0.025 µg/mL (≈ 0.0589 µM) | 0.025 µg/mL (≈ 0.0589 µM) | 0.025 µg/mL (≈ 0.0589 µM) | 0.39 µg/mL (≈ 0.919 µM) | 6.25 µg/mL (≈ 14.7 µM) | 0.39 µg/mL (≈ 0.919 µM) | 0.025 µg/mL (≈ 0.0589 µM) | 0.78 µg/mL (≈ 1.84 µM) | 0.05 µg/mL (≈ 0.118 µM) | 0.2 µg/mL (≈ 0.471 µM) | 0.013 µg/mL (≈ 0.0306 µM) | 0.39 µg/mL (≈ 0.919 µM) | 3.13 µg/mL (≈ 7.37 µM) | 0.39 µg/mL (≈ 0.919 µM) | 0.2 µg/mL (≈ 0.471 µM) | 0.39 µg/mL (≈ 0.919 µM) | MIC [20]: 0.1 µg/mL (≈ 0.236 µM); MIC [21]: 0.025 µg/mL (≈ 0.0589 µM)
2 | CC1Oc2c(N3CCN(C)CC3)c(F)cc3c(=O)c(C(=O)O)cn(c23)N1C (centres unmarked) [Example 26] | 0.78 µg/mL (≈ 2.07 µM) | 1.56 µg/mL (≈ 4.14 µM) | 0.78 µg/mL (≈ 2.07 µM) | 6.25 µg/mL (≈ 16.6 µM) | 0.39 µg/mL (≈ 1.04 µM) | 0.78 µg/mL (≈ 2.07 µM) | 0.78 µg/mL (≈ 2.07 µM) | 12.5 µg/mL (≈ 33.2 µM) | 25 µg/mL (≈ 66.4 µM) | 3.13 µg/mL (≈ 8.32 µM) | 0.2 µg/mL (≈ 0.531 µM) | 12.5 µg/mL (≈ 33.2 µM) | 0.78 µg/mL (≈ 2.07 µM) | 3.13 µg/mL (≈ 8.32 µM) | 0.2 µg/mL (≈ 0.531 µM) | 6.25 µg/mL (≈ 16.6 µM) | 50 µg/mL (≈ 133 µM) | 3.13 µg/mL (≈ 8.32 µM) | 3.13 µg/mL (≈ 8.32 µM) | 3.13 µg/mL (≈ 8.32 µM) | MIC [20]: 1.56 µg/mL (≈ 4.14 µM); MIC [21]: 0.78 µg/mL (≈ 2.07 µM)
3 | CN1COc2c(N3CCN(Cc4ccc(N)cc4)CC3)c(F)cc3c(=O)c(C(=O)O)cn1c23 [Example 53, 10-[4-(4-aminobenzyl)-1-piperazinyl]-9-fluoro-3-methyl-7-oxo-2,3-dihydro-7H-pyrido[3,2,1-ij]-1,3,4-benzoxadiazine-6-carboxylic acid] | 0.1 µg/mL (≈ 0.221 µM) | 0.1 µg/mL (≈ 0.221 µM) | 0.2 µg/mL (≈ 0.441 µM) | 0.78 µg/mL (≈ 1.72 µM) | 0.1 µg/mL (≈ 0.221 µM) | 0.025 µg/mL (≈ 0.0551 µM) | 0.1 µg/mL (≈ 0.221 µM) | 0.78 µg/mL (≈ 1.72 µM) | 1.56 µg/mL (≈ 3.44 µM) | 0.1 µg/mL (≈ 0.221 µM) | 0.1 µg/mL (≈ 0.221 µM) | 3.13 µg/mL (≈ 6.9 µM) | 0.2 µg/mL (≈ 0.441 µM) | 0.39 µg/mL (≈ 0.86 µM) | 0.05 µg/mL (≈ 0.11 µM) | 1.56 µg/mL (≈ 3.44 µM) | 12.5 µg/mL (≈ 27.6 µM) | 0.1 µg/mL (≈ 0.221 µM) | 0.05 µg/mL (≈ 0.11 µM) | 0.1 µg/mL (≈ 0.221 µM) | MIC [20]: 0.78 µg/mL (≈ 1.72 µM); MIC [21]: 0.2 µg/mL (≈ 0.441 µM)
4 | CN1COc2c(N3CCN(CC(=O)O)CC3)c(F)cc3c(=O)c(C(=O)O)cn1c23 [Example 45] | 0.1 µg/mL (≈ 0.246 µM) | 3.13 µg/mL (≈ 7.7 µM) | 0.2 µg/mL (≈ 0.492 µM) | 0.78 µg/mL (≈ 1.92 µM) | 0.1 µg/mL (≈ 0.246 µM) | 0.39 µg/mL (≈ 0.96 µM) | 0.1 µg/mL (≈ 0.246 µM) | 12.5 µg/mL (≈ 30.8 µM) | 50 µg/mL (≈ 123 µM) | 1.56 µg/mL (≈ 3.84 µM) | 0.05 µg/mL (≈ 0.123 µM) | 12.5 µg/mL (≈ 30.8 µM) | 0.2 µg/mL (≈ 0.492 µM) | 0.39 µg/mL (≈ 0.96 µM) | 0.1 µg/mL (≈ 0.246 µM) | 0.78 µg/mL (≈ 1.92 µM) | 6.25 µg/mL (≈ 15.4 µM) | 3.13 µg/mL (≈ 7.7 µM) | 0.78 µg/mL (≈ 1.92 µM) | 3.13 µg/mL (≈ 7.7 µM) | MIC [20]: 0.78 µg/mL (≈ 1.92 µM); MIC [21]: 0.05 µg/mL (≈ 0.123 µM)
5 | CN1CCN(c2c(F)cc3c(=O)c(C(=O)O)cn4c3c2OCN4CCF)CC1 [Example 69, 9-fluoro-3-(2-fluoroethyl)-10-(4-methyl-1-piperazinyl)-7-oxo-2,3-dihydro-7H-pyrido[3,2,1-ij]-1,3,4-benzoxadiazine-6-carboxylic acid] | 0.1 µg/mL (≈ 0.254 µM) | 1.56 µg/mL (≈ 3.96 µM) | 0.2 µg/mL (≈ 0.507 µM) | 0.78 µg/mL (≈ 1.98 µM) | 0.05 µg/mL (≈ 0.127 µM) | 0.2 µg/mL (≈ 0.507 µM) | 0.1 µg/mL (≈ 0.254 µM) | 0.78 µg/mL (≈ 1.98 µM) | 12.5 µg/mL (≈ 31.7 µM) | 1.56 µg/mL (≈ 3.96 µM) | 0.1 µg/mL (≈ 0.254 µM) | 3.13 µg/mL (≈ 7.94 µM) | 0.2 µg/mL (≈ 0.507 µM) | 0.39 µg/mL (≈ 0.989 µM) | 0.1 µg/mL (≈ 0.254 µM) | 0.78 µg/mL (≈ 1.98 µM) | 6.25 µg/mL (≈ 15.8 µM) | 1.56 µg/mL (≈ 3.96 µM) | 0.78 µg/mL (≈ 1.98 µM) | 1.56 µg/mL (≈ 3.96 µM) | MIC [20]: 0.2 µg/mL (≈ 0.507 µM); MIC [21]: 0.2 µg/mL (≈ 0.507 µM)
